According to US20230035892A1, “METHODS AND COMPOSITIONS FOR TREATING CANCER” (Flagship Pioneering Innovations V, Inc., priority 2019, published 2023):
Where two headings read alike, the source gives them in different places.

Assays:
Format in all cases: cell-based
[1] = system: PAXF1657 stably overexpressing GRK2 cDNA; assay: 7-day CellTiter-Glo anti-proliferative assay; details: PAXF1657, sgNTC, pReceiver-GRK2, 5 or 10 point dose curve; for Emax: 168 h, read-out: Maximum % Growth inhibition relative to DMSO, geometric mean; for GI50: read-out: GI50, geometric mean
Experimental: (§1) Cell lines were seeded into tissue culture treated, white-walled, 96-well plates at a density of 500 cells/well in RPM11640 media supplemented with 10% H.I. FBS and penicillin/streptomycin. Plates were incubated overnight at 37° C., 5% CO2 to allow cells to adhere to the wells. GRK2 small molecule antagonists were added to the cells using a ten-point or five-point dilution series with a final concentration ranging from […] in 0.1% DMSO. At the time of compound addition, a set of plates that were not treated with compounds were collected and cell viability was measured using CellTiter-Glo (Promega). CellTiter-Glo reagent was added to the plates and luminescence was measured using a Biotek Synergy plate reader. The compound treated cells were incubated for 3 days at 37° C., 5% CO2. The media was then aspirated from each well and replaced with fresh media containing GRK2 small molecule antagonists. The compound treated cells were then incubated for another 4 days at 37° C., 5% CO2 and cell viability was assessed at the end of the 7-day compound treatment by CellTiterGlo.

[2] = system: PAXF1657 control empty vector; assay: 7-day CellTiter-Glo anti-proliferative assay; details: for Emax: 168 h, read-out: Maximum % Growth inhibition relative to DMSO, geometric mean; for GI50: read-out: GI50, geometric mean
Experimental: as §1

[3] = system: Grk2 protein; assay: Western Blot of Grk2 levels after doxycycline-induced sgRNA expression; details: PAXF1657, day 7, +dox
Experimental: To validate the findings from the CRISPR screen, Cas9-expressing pancreatic cell lines were generated that express doxycycline inducible sgRNAs targeting GRK2. Treatment of these cells with 100 ng/ml doxycycline for 3, 7 or 10 days induced a time-dependent depletion of Grk2 protein, confirming the on-target efficacy of the sgRNAs.

[4] = system: Grk2 protein; assay: Western Blot of Grk2 levels in PAXF1657 lines re-expressing cleavage-resistant Grk2 wild-type or kinase-dead cDNA; details: PAXF1657 expressing the sgRNA, cDNA Empty vector; for GRK2/GAPDH / GRK2 Adj. Vol. (Int): +dox
Description: (§2) To test whether the Grk2 sgRNAs act through targeting Grk2, and to test whether the anti-proliferative effect results from loss of the Grk2 kinase activity, Grk2 sgRNA expressing PAXF1657 cell lines overexpressing Cas9/sgRNA-cleavage-resistant Grk2 wild-type or kinase-dead cDNA constructs were generated. Re-expression of Cas9/sgRNA-cleavage-resistant Grk2 wild-type or kinase-dead cDNA constructs led to increased Grk2 protein levels, as measured by Western Blot analysis and shown in Table 18.

[5] = system: PAXF1657; assay: RFP/GFP competition assay, doxycycline-induced GRK2 knockout
Experimental: (§3) Next, experiments were performed to evaluate whether GRK2 knockout induced by doxycycline treatment results in a proliferation defect in pancreatic cancer cells. Pancreatic cancer cell lines expressing GRK2 sgRNAs as well as RFP were plated in a ratio of 1:1 with GFP expressing pancreatic cancer cells. Co-plated cells were cultured in the presence or absence of 100 ng/ml doxycycline over the course of 21 days, and the percentage of GFP and RFP-expressing cells was measured over time.

[6] = system: PAXF1657 cells; assay: Growth (RFP/GFP ratio) of sgGrk2 PAXF1657 lines re-expressing Grk2 wild-type or kinase-dead cDNA; details: for sgRNA-induced growth inhibition on re-expression of Grk2 wild-type cDNA: cleavage-resistant Grk2 wild-type cDNA
Experimental: as §3, §2

[7] = system: sgGrk2-expressing PAXF1657 cells; assay: Colony formation assay in sgGrk2-expressing cells (target specificity); details: PAXF1657, DMSO treatment; for Rel +dox: sgRNA induced (+dox)
Experimental: To assess the target specificity of the GRK2 small molecule antagonist of Formula III-26, sgGRK2-expressing cells were treated with the compound of Formula III-26. If GRK2 knockout is complete and the compound of Formula III-26 inhibits only GRK2, the addition of the compound of Formula III-26 should not induce any additional growth defect compared to sgRNA KO alone. […] This is potentially due to the lower GRK2 knockout efficiency that can be achieved in PAXF1657 compared to Miapaca2, as shown in Table 16.

[8] = system: PAXF1657 stable clone of GRK2 knockout; assay: 7-day CellTiter-Glo anti-proliferative assay; details: PAXF1657, sgGRK2 #2 clonal KO, no cDNA, 10 point dose curve; for GI50: read-out: GI50, geometric mean
Experimental: as §1

[9] = PAXF1657, sgNTC, pReceiver-empty vector, 5 or 10 point dose curve
[10] = PAXF1657, day 3, 100 ng/ml doxycycline
[11] = PAXF1657, day 7, 100 ng/ml doxycycline
[12] = PAXF1657, day 10, 100 ng/ml doxycycline
[13] = PAXF1657, day 14, 100 ng/ml doxycycline
[14] = PAXF1657, day 17, 100 ng/ml doxycycline
[15] = PAXF1657, day 21, 100 ng/ml doxycycline

Question: What does the source list for `O=C(NCc1c(F)cccc1F)c1cccc(NCc2nnc3n2CCOc2cnccc2-3)c1` [Compound of Formula III-56]?
Answer: Emax [1]: 28.3%; GI50 [1]: > 10 µM; Emax [2, 9]: 46.5%; GI50 [2, 9]: > 10 µM

Question: For `O=C(NCc1[nH]nc2ccccc12)c1cc([C@@H]2CCNC[C@H]2COc2ccc3c(c2)OCO3)ccc1F` [Compound of Formula II-35], which GI50 [2, 9] is on record?
Answer: The GI50 was 3.37 µM.

Question: How did the “GRK2/GAPDH normalized to −dox” value [3] turn out when “sgGrk2-3: "sgGrk2-3 (SEQ ID NO: 4)"; "doxycycline inducible sgRNAs targeting GRK2" (guide GCACCCCAGAGAGAACCAGT; expressed or natural sequence)” was run?
Answer: Its value is 0.28.

Question: What about the GRK2/GAPDH ratio [3] of the same compound?
Answer: Its GRK2/GAPDH ratio is 0.16.

Question: What about the “GRK2 Avg. Intensity” value [3] of the same compound?
Answer: The value was 2,026,964.66.

Question: And the “GRK2/GAPDH normalized to −dox” value [4]?
Answer: Its value is −2.47.

Question: And the GRK2/GAPDH [4]?
Answer: Its GRK2/GAPDH is −0.04.

Question: What about the “GRK2 Adj. Vol. (Int)” value [4] of the same compound?
Answer: Its value is −514,147.69.

Question: And the “RFP/GFP ratio +dox normalized to RFP/GFP ratio −dox” value (from here on “RFP/GFP ratio +dox normalized”) [5, 10]?
Answer: The value was 0.92.

Question: And the “RFP/GFP ratio +dox normalized” value [5, 11]?
Answer: Its value is 0.83.

Question: What about the “RFP/GFP ratio +dox normalized” value [5, 12] of the same compound?
Answer: The value was 0.64.

Question: And the “RFP/GFP ratio +dox normalized” value [5, 13]?
Answer: Its value is 0.44.

Question: And the “RFP/GFP ratio +dox normalized” value [5, 14]?
Answer: Its value is 0.27.

Question: And the “RFP/GFP ratio +dox normalized” value [5, 15]?
Answer: The value was 0.24.

Question: What about the “sgRNA-induced growth inhibition on re-expression of Grk2 wild-type cDNA” value [6] of the same compound?
Answer: The value was “less efficient”.

Question: And the “Difference between rel +dox and −dox signal” value [7]?
Answer: The value was 0.36.

Question: What about the “Rel +dox” value [7] of the same compound?
Answer: Its value is 0.64.

Question: Which results are given for `COc1ccccc1CNC(=O)c1cccc(NCc2nnc(-c3ccncc3)[nH]2)c1` [Compound of Formula III-28]?
Answer: Emax [1]: 64.7%; GI50 [1]: 14.7 µM; Emax [2, 9]: 76.8%; GI50 [2, 9]: 0.653 µM; Maximum % Growth inhibition relative to DMSO, geometric mean [8]: 78.8%; GI50 [8]: 17.9 µM

Question: With `O=C(NCc1ccccc1)c1cccc(NCc2nnc(-c3ccncc3)[nH]2)c1` [Compound of Formula III-30] as the compound, how does the Emax [1] read?
Answer: The Emax was 65.5%.

Question: And the GI50 [1]?
Answer: The GI50 was 3.4 µM.

Question: What about the Emax [2, 9] of the same compound?
Answer: Its Emax is 73.1%.

Question: And the GI50 [2, 9]?
Answer: The GI50 was 4.91 µM.

Question: What about the “Maximum % Growth inhibition relative to DMSO, geometric mean” value [8] of the same compound?
Answer: The value was 63.5%.

Question: What about the GI50 [8] of the same compound?
Answer: The GI50 was greater than 30 µM.

Question: Which Emax [1] does the source give for `O=C(NCc1ccccc1C(F)(F)F)c1cccc(NCc2nnc3n2CCOc2cnccc2-3)c1` [Compound of Formula III-55] here?
Answer: The Emax was 85.9%.

Question: What about the GI50 [1] of the same compound?
Answer: Its GI50 is 0.17 µM.

Question: What about the Emax [2, 9] of the same compound?
Answer: The Emax was 82.3%.

Question: And the GI50 [2, 9]?
Answer: Its GI50 is 0.11 µM.

Question: What does the source list for `Fc1ccc([C@@H]2CCNC[C@H]2COc2ccc3[nH]ncc3c2)cc1CNCc1ccn[nH]1` [Compound of Formula II-33]?
Answer: Emax [1]: 0%; GI50 [1]: > 10 µM; Emax [2, 9]: 42.7%; GI50 [2, 9]: 6.27 µM

Question: Which “GRK2/GAPDH normalized to −dox” value [3] does the source give for “sgGrk2-2: "sgGrk2-2 (SEQ ID NO: 3)"; "doxycycline inducible sgRNAs targeting GRK2" (guide GGTCCCGGTAGACCACGAAG; expressed or natural sequence)” here?
Answer: Its value is 0.20.

Question: And the GRK2/GAPDH ratio [3]?
Answer: Its GRK2/GAPDH ratio is 0.06.

Question: What about the “GRK2 Avg. Intensity” value [3] of the same compound?
Answer: Its value is 2,133,921.03.

Question: What about the “GRK2/GAPDH normalized to −dox” value [4] of the same compound?
Answer: The value was −0.24.

Question: What about the GRK2/GAPDH [4] of the same compound?
Answer: Its GRK2/GAPDH is −0.01.

Question: What about the “GRK2 Adj. Vol. (Int)” value [4] of the same compound?
Answer: Its value is −189,385.63.

Question: What about the “RFP/GFP ratio +dox normalized” value [5, 10] of the same compound?
Answer: Its value is 1.00.

Question: What about the “RFP/GFP ratio +dox normalized” value [5, 11] of the same compound?
Answer: The value was 0.89.

Question: And the “RFP/GFP ratio +dox normalized” value [5, 12]?
Answer: Its value is 0.76.

Question: What about the “RFP/GFP ratio +dox normalized” value [5, 13] of the same compound?
Answer: The value was 0.69.

Question: And the “RFP/GFP ratio +dox normalized” value [5, 14]?
Answer: The value was 0.57.

Question: What about the “RFP/GFP ratio +dox normalized” value [5, 15] of the same compound?
Answer: The value was 0.44.

Question: And the “sgRNA-induced growth inhibition on re-expression of Grk2 kinase-dead cDNA” value ([6]; cleavage-resistant Grk2 kinase-dead cDNA)?
Answer: The value was “did not”.

Question: What about the “sgRNA-induced growth inhibition on re-expression of Grk2 wild-type cDNA” value [6] of the same compound?
Answer: Its value is “reduced the sgRNA-induced growth inhibition”.

Question: And the “Difference between rel +dox and −dox signal” value [7]?
Answer: The value was 0.21.

Question: What about the “Rel +dox” value [7] of the same compound?
Answer: Its value is 0.79.

Question: How did the Emax [1] turn out when `O=C(NCc1cc[nH]n1)c1cc([C@@H]2CCNC[C@H]2COc2ccc3c(c2)OCO3)ccc1F` [Compound of Formula II-26] was run?
Answer: The Emax was 25.5%.

Question: What about the GI50 [1] of the same compound?
Answer: The GI50 was greater than 10 µM.

Question: What about the Emax [2, 9] of the same compound?
Answer: The Emax was 43.3%.

Question: And the GI50 [2]?
Answer: The GI50 was 1.49 µM.

Question: What does the source list for `Cn1c(CNc2cccc(C(=O)NCc3c(F)cccc3F)c2)nnc1-c1ccncn1` [Compound of Formula III-31]?
Answer: Emax [1]: 29.8%; GI50 [1]: > 10 µM; Emax [2, 9]: 31.6%; GI50 [2, 9]: > 10 µM

Question: With `O=C(NCc1ccccc1C(F)(F)F)c1cccc(NCc2nnc(-c3ccncc3)n2CCO)c1` [Compound of Formula III-54] as the compound, how does the Emax [1] read?
Answer: Its Emax is 87.3%.

Question: What about the GI50 [1] of the same compound?
Answer: The GI50 was 2.71 µM.

Question: What about the Emax [2, 9] of the same compound?
Answer: Its Emax is 89%.

Question: And the GI50 [2, 9]?
Answer: Its GI50 is 2.52 µM.

Question: Which Emax [1] does the source give for `CCCn1c(CNc2cccc(C(=O)NCc3ccccc3C(F)(F)F)c2)nnc1-c1ccncn1` [Compound of Formula III-35] here?
Answer: Its Emax is 81.4%.

Question: And the GI50 [1]?
Answer: The GI50 was 0.614 µM.

Question: What about the Emax [2, 9] of the same compound?
Answer: The Emax was 83.6%.

Question: And the GI50 [2, 9]?
Answer: Its GI50 is 0.68 µM.
